Results on two compounds are retold here after patent publication US10548871B2, “Low-dose doxepin formulations and methods of making and using the same” (Pernix Sleep, Inc., priority 2007, dated 2020).

For data set [1] the following is noted: Biopharmaceutic Classification System; cited from earlier work.
A short description of data set [2]: Pharmacokinetic performance of low dose doxepin capsules and tablets in healthy adult volunteers, crossover design. It counts as in vivo, human. The following applies: majority of subjects. How it is done: The pharmacokinetic performance of oral, low dose doxepin formulations is well suited to the treatment of insomnia. The pharmacokinetic performance of capsules containing 1, 3 or 6 mg doxepin, as well as tablets containing 6 mg doxepin, was evaluated in healthy adult volunteers under a crossover design.
Of further interest to the pharmacokinetic performance of these doxepin formulations was the time necessary to reach certain plasma concentrations. Reaching particular concentrations in plasma can play a role in establishing therapeutic benefit. In particular, doxepin concentrations in plasma reach 0.05 ng/mL in the majority of subjects for all doses within 90 minutes after dosing. […] Such pharmacokinetic performance is beneficial in the treatment of insomnia, as reaching measurable plasma concentrations in a timely manner can be preferred for facilitating the onset of sleep.

The next data set has as its system adult insomnia patients. Nature of the data set: Polysomnographic endpoints in adult insomnia patients treated with 3 mg doxepin.

SMILES strings stand for the structures. Counter-ions that a name gives are not always drawn. Bounds are passed on as bounds.

In the case of `CN(C)CCC=C1c2ccccc2COc2ccccc21` [doxepin HCl, Doxepin HCl], the solubility entry in data set [1] is “high solubility”.

As for `CN(C)CCC=C1c2ccccc2COc2ccccc21` [doxepin], the “time after dosing to reach plasma concentration of 0.1 ng/mL” value in data set [2] (3 and 6 mg doses) is at most 60 min. For the same compound, the “time after dosing for doxepin plasma concentration to reach 0.05 ng/mL” value in data set [2] (all doses) is at most 90 min. Also, in the data set on adult insomnia patients, the maintenance of sleep result was “persisted throughout the entire night (8 hours)” and the residual sedation entry was “not followed by residual sedation”. For the same compound, the “sleep onset, on average, after bedtime” value in the data set with adult insomnia patients (polysomnographic endpoint) was determined as 27 min.
